# Measurements as given in patent EP4302767A1, “OPHTHALMIC COMPOSITION COMPRISING ERIOCITRIN” (Skeye Pharma GmbH, priority 2022, dated 2024).
# Tests used:
# [1] = tested on: Human corneal epithelial cells (hCEC); test: BrdU cell proliferation ELISA; format: cell-based
# Procedure: (§1) Proliferation of hCEC was determined using a 5-bromo-2'-deoxyuridine (BrdU) ELISA in accordance with the manufacturers' recommendations (Merck KGaA, Darmstadt, Germany). In brief, approximately 7,000 cells were seeded onto a 96-well cell culture plate and incubated for 24h to achieve complete adherence of the cells. After 24 hours of incubation with 100 µl of corneal epithelial cell growth medium without its' supplement mix, hCECs were treated with eriocitrin and/or SCH772984 (Selleckchem, Houston, TX, USA), an inhibitor of ERK1/2 phosphorylation, both dissolved in DMSO. Following another 24 hours of incubation with BrdU labeling solution, cells were fixed and incubated with anti-BrdU antibodies according to the manufacturer's recommendations. BrdU incorporation into the DNA of hCECs was quantified by absorbance measurement at 450 nm.
# [2] = WST-1 cell viability assay; format: cell-based, Human; conditions: human, corneal epithelial cells, 0.5 µM, DMSO control = 100 ± 12%, mean ± SD
# Procedure: (§2) Human corneal epithelial cells (hCEC; SCCE016; Merck Millipore, Burlington, MA, USA) were cultured in corneal epithelial cell growth medium with supplement mix (LGC Standards, Teddington, United Kingdom). Approximately 10,000 hCECs were seeded onto each well of a 96-well cell-culture dishes (NUNC, Langenselbold, Germany). After 24 hours of incubation with 100 µl of corneal epithelial cell growth medium without its' supplement mix (LGC Standards, Teddington, United Kingdom), hCECs were treated with different concentrations of eriocitrin (EC; Selleckchem, Houston, TX, USA) dissolved in dimethyl sulfoxide (DMSO; Carl Roth AG, Karlsruhe, Germany). Control groups were treated with DMSO only. Following another 72 hours of incubation, the cells were incubated with the water-soluble tetrazolium salt (WST-1; Hoffmann-La Roche AG, Basel, Switzerland) solution for 30 minutes. Substrate turnover was measured with an ELISA reader at 450 nm (Spectramax 190; Molecular Devices, Sunnyvale, CA, USA) and a reference at 690 nm.
# [3] = tested on: Human corneal epithelial cells (hCEC); test: WST-1 cell viability assay; format: cell-based; conditions: any of the concentrations tested, 72 hours, compared to DMSO control; Fig. 1A
# Procedure: as §2
# [4] = tested on: Human corneal epithelial cells (hCEC); test: Cell scratch (wound healing / migration) assay in vitro; format: cell-based; conditions: 10 µM, Fig. 2
# Procedure: To analyze hCEC migration in vitro, cells were cultured in corneal epithelial cell growth medium with supplement mix until confluence of the cells of a 6-well cell culture plate. Following an incubation period of 24 hours in cell culture medium without supplements, 5 linear scratches were performed in each well using a 200 µl pipette tip (Eppendorf AG, Hamburg, Germany). The hCECs were then incubated prospectively under treatment with eriocitrin or DMSO as a control for up to 48 hours. Reference images were acquired at the beginning of the incubation period using the phase contrast mode on an Axio Observer 7 (Carl Zeiss AG, Jena, Germany). Every 24 hours, follow-up images of different scratch sections were acquired. The size of the wound area was analyzed using a semi-automated analysis tool in ImageJ 1.53a (National Institute of Health, Bethesda, MD, USA).
# [5] = tested on: Human corneal epithelial cells (hCEC); test: Oxidative stress model (H2O2) with BrdU proliferation assay; format: cell-based; conditions: 24 h, Fig. 3, read-out: cell proliferation
# Procedure: as §1
# To determine potential anti-oxidative effects of eriocitrin, hCECs were incubated and treated analogous to the above-mentioned BrdU ELISA with minor modifications. To induce oxidative stress, hydrogen peroxide (H2O2) in a concentration of 100 µM was added to the treatment groups and an additional H2O2-only group was tested. Following another incubation of the hCECs for 24 hours, the BrdU assay was further performed according to the description above.
# ERK1/2 = test: Western blot of ERK1/2 phosphorylation in corneal epithelial cells; format: cell-based; conditions: Homo sapiens, Corneal epithelial cell, 1 hour, compared to DMSO-only control, Fig. 4, read-out: pERK1/2 protein expression
# Procedure: To analyze whether eriocitrin activates the extracellular signal-regulated kinase-1 and -2 (ERK1/2), human corneal epithelial cells were treated with 10 µM eriocitrin for 1 hour. Corneal proteins were isolated in radioimmunoprecipitation assay (RIPA) buffer. Protein concentration was measured with a bicinchoninic acid (BCA) assay according to the manufacturer's instructions (Thermo Fisher Scientific, Waltham, MA, USA). Up to 25 µg of total proteins were subjected to 8% SDS-PAGE. Following gel electrophoresis proteins were transferred onto a polyvinylidine fluoride (PVDF) membrane (Roche Holding, Basel, Switzerland) by semidry blotting. After blocking with 3% low fat milk in PBS-Tween (PBS-T) for one hour, membranes were incubated overnight with a rabbit-anti-pERK1/2 (1:1000; Cell Signaling Technology, Danvers, MA, USA) in PBS-T with 0.3% low fat milk. Alkaliphosphatase-conjugated mouse-anti-rabbit antibodies (1:1000, Jackson Immunoresearch Europe, UK) were used as secondary antibodies. Antibody hybridization was visualized using the CDP-Star substrate (Thermo Fisher) and documented with the Western Blot Reader iBright CL 1000 (Thermo Fisher). As a loading control, AP-conjugated anti-alpha-tubulin antibodies were used (1:1000, Merck). The densitometry of Western blot analyses was performed with the iBright Image software v.1.4.0 software (Thermo Fisher).
# [6] = 80°C for 30 min, pH 7; cited from earlier work
# [7] = 'it is believed'; basis not stated; cited from earlier work
smiles,measurement,setting,value
"O=C(Nc1ccc2[nH]nc(-c3ccncc3)c2c1)[C@@H]1CCN(CC(=O)N2CCN(c3ccc(-c4ncccn4)cc3)CC2)C1 [SCH772984, reference compound]",effect on eriocitrin-enhanced proliferation of corneal epithelial cells,"[1]; 100 nM added to 10 µM eriocitrin, 24 hours, Fig. 5",completely blocked
"C[C@@H]1O[C@@H](OC[C@H]2O[C@@H](Oc3cc(O)c4c(c3)O[C@H](c3ccc(O)c(O)c3)CC4=O)[C@H](O)[C@@H](O)[C@@H]2O)[C@H](O)[C@H](O)[C@H]1O [eriocitrin, (2S)-3',4',5-trihydroxy-7-[α-L-rhamnopyranosyl-(1→6)-β-D-glucopyranosyloxy]flavan-4-one]","viability at 72 h, 0.5 µM",[2],110 ± 14%
same,toxic effects on corneal epithelial cell viability,[3],did not show any toxic effects
same,proliferation,"[1]; 10 µM eriocitrin plus 100 nM SCH772984, 24 hours, Fig. 5",104 ± 9%
same,proliferation,"[1]; 10 µM, 24 hours, compared to DMSO treated controls, Fig. 5",129 ± 11%
same,activity at 0.5 µM,"[1]; Homo sapiens, HCEC, 0.5 µM, 24 hours, DMSO control = 100 ± 17%, Fig. 1B",118 ± 39%
same,activity at 1 µM,"[1]; Homo sapiens, HCEC, 1 µM, 24 hours, DMSO control = 100 ± 17%, Fig. 1B",126 ± 33%
same,activity at 2.5 µM,"[1]; Homo sapiens, HCEC, 2.5 µM, 24 hours, DMSO control = 100 ± 17%, Fig. 1B",127 ± 29%
same,activity at 5 µM,"[1]; Homo sapiens, HCEC, 5 µM, 24 hours, DMSO control = 100 ± 17%, Fig. 1B",143 ± 36%
same,activity at 10 µM,"[1]; Homo sapiens, HCEC, 10 µM, 24 hours, DMSO control = 100 ± 17%, Fig. 1B",162 ± 49%
same,"scratched hCEC area, difference to DMSO-only control","[4]; 24 hours of incubation, p > 0.9999",slight difference
same,remaining wound area,"[4]; 48 hours of incubation, control 71.9 ± 7.7%",64.5 ± 7.8%
same,activity at 5 µM,"[5]; 5 µM added to 100 µM H2O2, 24 hours, H2O2 control 81 ± 12%",113 ± 9%
same,activity at 5 µM,"[5]; 5 µM, 24 hours, without H2O2, compared to DMSO control",117 ± 8%
same,activity at 10 µM,"[5]; 10 µM added to 100 µM H2O2, 24 hours, H2O2 control 81 ± 12%",115 ± 18%
same,activity at 10 µM,"[5]; 10 µM, 24 hours, without H2O2, compared to DMSO control",125 ± 18%
same,fold induction at 10 µM,ERK1/2,1.8 ± 0.9
same,eriocitrin molecules remain intact,[6],60%
"COc1cc(O)c(CC=C(C)C)c(O)c1C(=O)/C=C/c1ccc(O)cc1 [xanthohumol, 1-[2,4-Dihydroxy-6-methoxy-3-(3-methyl-but-2-enyl)-phenyl]-3-(4-hydroxyphenyl)-propenon]",first pka,[7],about 7
